According to patent US12435031B2, “Compound with broad-spectrum antibacterial activity and its antibacterial composition” (CHINA AGRICULTURAL UNIVERSITY, priority 2023, dated 2025):
Converted amounts (≈) assume the structure as drawn. Where two headings read alike, the source gives them in different places.

Test system: Clostridium perfringens
Assay: microbe, parasite or virus in culture
Format: cell-based
[1] = Clostridium perfringens, read-out: MIC value against Clostridium perfringens, strain A3-1 (A-type)
[2] = Clostridium perfringens, read-out: MIC value against Clostridium perfringens, strain A3-2 (A-type)
[3] = Clostridium perfringens, read-out: MIC value against Clostridium perfringens, strain A57-1 (A-type)
[4] = Clostridium perfringens, read-out: MIC value against Clostridium perfringens, strain B4 (B-type)
[5] = Clostridium perfringens, read-out: MIC value against Clostridium perfringens, strain B5 (B-type)
[6] = Clostridium perfringens, read-out: MIC value against Clostridium perfringens, strain C3 (C-type)
[7] = Clostridium perfringens, read-out: MIC value against Clostridium perfringens, strain C8 (C-type)
[8] = Clostridium perfringens, read-out: MIC value against Clostridium perfringens, strain C59-1 (C-type)
[9] = Clostridium perfringens, read-out: MIC value against Clostridium perfringens, strain D14B (D-type)
[10] = Clostridium perfringens, read-out: MIC value against Clostridium perfringens, strain F5-2 (F-type)
[11] = Clostridium perfringens, read-out: MIC value against Clostridium perfringens, strain F6-1 (F-type)
[12] = Clostridium perfringens, read-out: MIC value against Clostridium perfringens, strain F6-2 (F-type)
[13] = Clostridium perfringens, read-out: MIC value against Clostridium perfringens, strain F6-2-1 (F-type)
[14] = Clostridium perfringens, read-out: MIC value against Clostridium perfringens, strain F6-2-2 (F-type)
[15] = Clostridium perfringens, read-out: MIC value against Clostridium perfringens, strain F7-1 (F-type)
[16] = Clostridium perfringens, read-out: MIC value against Clostridium perfringens, strain F8-1 (F-type)
[17] = Clostridium perfringens, read-out: MIC value against Clostridium perfringens, strain H12-1 (H-type)
[18] = Clostridium perfringens, read-out: MIC value against Clostridium perfringens, strain H12-2 (H-type)
[19] = Clostridium perfringens, read-out: MIC value against Clostridium perfringens, strain H13-1 (H-type)
[20] = Clostridium perfringens, read-out: MIC value against Clostridium perfringens, strain H14-1 (H-type)
[21] = Clostridium perfringens, read-out: MIC value against Clostridium perfringens, strain H14-2 (H-type)
[22] = Clostridium perfringens, read-out: MIC value against Clostridium perfringens, strain H14-4 (H-type)
[23] = Clostridium perfringens, read-out: MIC value against Clostridium perfringens, strain H15-1 (H-type)
[24] = Clostridium perfringens, read-out: MIC value against Clostridium perfringens, strain H15-2 (H-type)
[25] = Clostridium perfringens, read-out: MIC value against Clostridium perfringens, strain H15-3 (H-type)
[26] = Clostridium perfringens, read-out: MIC value against Clostridium perfringens, strain H16 (H-type)

Penicillin
MIC value against Clostridium perfringens (strain A3-1 (A-type)): 0.25 µg/mL
MIC value against Clostridium perfringens (strain A3-2 (A-type)): 0.5 µg/mL
MIC value against Clostridium perfringens (strain A57-1 (A-type)): 0.25 µg/mL
MIC value against Clostridium perfringens (strain B4 (B-type)): 0.5 µg/mL
MIC value against Clostridium perfringens (strain B5 (B-type)): 0.5 µg/mL
MIC value against Clostridium perfringens (strain C3 (C-type)): 2 µg/mL
MIC value against Clostridium perfringens (strain C8 (C-type)): 0.25 µg/mL
MIC value against Clostridium perfringens (strain C59-1 (C-type)): 0.125 µg/mL
MIC value against Clostridium perfringens (strain D14B (D-type)): 0.5 µg/mL
MIC value against Clostridium perfringens (strain F5-2 (F-type)): 0.125 µg/mL
MIC value against Clostridium perfringens (strain F6-1 (F-type)): 0.25 µg/mL
MIC value against Clostridium perfringens (strain F6-2 (F-type)): 0.125 µg/mL
MIC value against Clostridium perfringens (strain F6-2-1 (F-type)): 0.25 µg/mL
MIC value against Clostridium perfringens (strain F6-2-2 (F-type)): 0.25 µg/mL
MIC value against Clostridium perfringens (strain F7-1 (F-type)): 0.5 µg/mL
MIC value against Clostridium perfringens (strain F8-1 (F-type)): 0.25 µg/mL
MIC value against Clostridium perfringens (strain H12-1 (H-type)): 0.25 µg/mL
MIC value against Clostridium perfringens (strain H12-2 (H-type)): 0.125 µg/mL
MIC value against Clostridium perfringens (strain H13-1 (H-type)): 0.0625 µg/mL
MIC value against Clostridium perfringens (strain H14-1 (H-type)): 0.25 µg/mL
MIC value against Clostridium perfringens (strain H14-2 (H-type)): 1 µg/mL
MIC value against Clostridium perfringens (strain H14-4 (H-type)): 0.125 µg/mL
MIC value against Clostridium perfringens (strain H15-1 (H-type)): 0.25 µg/mL
MIC value against Clostridium perfringens (strain H15-2 (H-type)): 0.25 µg/mL
MIC value against Clostridium perfringens (strain H15-3 (H-type)): 0.25 µg/mL
MIC value against Clostridium perfringens (strain H16 (H-type)): 0.125 µg/mL

C[C@H]1c2cccc(O)c2C(=O)C2=C(O)[C@]3(O)C(=O)C(C(N)=O)=C(O)[C@@H](N(C)C)[C@@H]3[C@@H](O)[C@@H]21 [DOX, Doxycycline]
MIC50 (Clostridium perfringens): 8 µg/mL (≈ 18 µM)
MIC90 (Clostridium perfringens): 16 µg/mL (≈ 36 µM)
MIC [1]: 8 µg/mL (≈ 18 µM)
MIC [2]: 8 µg/mL (≈ 18 µM)
MIC [3]: ≤ 0.25 µg/mL
MIC [4]: 2 µg/mL (≈ 4.5 µM)
MIC [5]: 8 µg/mL (≈ 18 µM)
MIC [6]: 16 µg/mL (≈ 36 µM)
MIC [7]: ≤ 0.25 µg/mL
MIC [8]: ≤ 0.25 µg/mL
MIC [9]: 1 µg/mL (≈ 2.25 µM)
MIC [10]: 4 µg/mL (≈ 9 µM)
MIC [11]: 32 µg/mL (≈ 72 µM)
MIC [12]: 16 µg/mL (≈ 36 µM)
MIC [13]: 16 µg/mL (≈ 36 µM)
MIC [14]: 16 µg/mL (≈ 36 µM)
MIC [15]: 8 µg/mL (≈ 18 µM)
MIC [16]: 16 µg/mL (≈ 36 µM)
MIC [17]: 4 µg/mL (≈ 9 µM)
MIC [18]: 4 µg/mL (≈ 9 µM)
MIC [19]: 8 µg/mL (≈ 18 µM)
MIC [20]: 8 µg/mL (≈ 18 µM)
MIC [21]: 8 µg/mL (≈ 18 µM)
MIC [22]: 4 µg/mL (≈ 9 µM)
MIC [23]: 16 µg/mL (≈ 36 µM)
MIC [24]: 16 µg/mL (≈ 36 µM)
MIC [25]: 8 µg/mL (≈ 18 µM)
MIC [26]: 8 µg/mL (≈ 18 µM)

C=C[C@]1(C)C[C@@H](OC(=O)CSCCN(CC)CC)[C@]2(C)[C@H](C)CC[C@]3(CCC(=O)[C@H]32)[C@@H](C)[C@@H]1O [TIA, Tiamulin]
MIC90 (Clostridium perfringens): 8 µg/mL (≈ 16.2 µM)
MIC50 (Clostridium perfringens (n=26), unit as printed for tiamulin): 0.5 µg/mL (≈ 1.01 µM)
MIC [1]: 0.5 µg/mL (≈ 1.01 µM)
MIC [2]: 0.5 µg/mL (≈ 1.01 µM)
MIC [3]: 4 µg/mL (≈ 8.1 µM)
MIC [4]: 4 µg/mL (≈ 8.1 µM)
MIC [5]: 0.5 µg/mL (≈ 1.01 µM)
MIC [6]: 8 µg/mL (≈ 16.2 µM)
MIC [7]: 0.5 µg/mL (≈ 1.01 µM)
MIC [8]: ≤ 0.25 µg/mL
MIC [9]: 8 µg/mL (≈ 16.2 µM)
MIC [10]: 0.5 µg/mL (≈ 1.01 µM)
MIC [11]: 0.5 µg/mL (≈ 1.01 µM)
MIC [12]: 0.5 µg/mL (≈ 1.01 µM)
MIC [13]: 0.5 µg/mL (≈ 1.01 µM)
MIC [14]: 0.5 µg/mL (≈ 1.01 µM)
MIC [15]: 4 µg/mL (≈ 8.1 µM)
MIC [16]: 4 µg/mL (≈ 8.1 µM)
MIC [17]: 0.5 µg/mL (≈ 1.01 µM)
MIC [18]: ≤ 0.25 µg/mL
MIC [19]: 4 µg/mL (≈ 8.1 µM)
MIC [20]: 8 µg/mL (≈ 16.2 µM)
MIC [21]: 8 µg/mL (≈ 16.2 µM)
MIC [22]: 4 µg/mL (≈ 8.1 µM)
MIC [23]: ≤ 0.25 µg/mL
MIC [24]: 4 µg/mL (≈ 8.1 µM)
MIC [25]: 4 µg/mL (≈ 8.1 µM)
MIC [26]: 4 µg/mL (≈ 8.1 µM)
